We go through 21 compounds from US5153207A, “Piperidine derivative, method for preparation thereof, and a pharmaceutical composition comprising the same” (Hokuriku Pharmaceutical Co., Ltd., priority 1989, dated 1992).

In data set [1] the test system is passive cutaneous anaphylaxis (PCA) in rats. In words: 48 hr homologous passive cutaneous anaphylaxis (PCA) in rats. It is filed as in vivo, male Wistar rats. The following applies: 1 hr prior to challenge with antigen; for inhibition in vivo at 1 mg/kg: Rattus norvegicus, po, read-out: the percent inhibition of PCA in rats. As for the experimental part: The following compounds were used as the reference compounds. 1.48 hr homologous passive cutaneous anaphylaxis (PCA) in rats a) Preparation of DNP-As and rat anti-DNP-As serum Ascaris extract coupled with 2,4-dinitrophenyl group (DNP-As) was prepared by the method of Koda et al. (Folia pharmacol. japon., 78, 319-334, 1981) and anti-DNP-As containing IgE antibody serum was prepared by the method of Tada and Okumura (J. Immunol., 106, 1019-1025, 1971). […] b) 48 hr homologous passive cutaneous anaphylaxis (PCA) in rats Male Wistar rats weighing 160 to 220 g were sensitized passively by intradermal injection in the back, of 0.05 ml of anti-DNP-As serum, diluted 21-fold with saline. […] After additional thirty minutes, the animals were killed by stunning and the skins were removed. The intensity of the response was evaluated by assaying the amount of dye leaked according to the method of Katayama et al. (Microbiol. Immunol., 22, 89-101, 1978). […] Test compounds were given orally in a dose 1.0 mg/kg 1 hr prior to challenge with antigen. As a control, 5 ml/kg of vehicle (0.5% CMC) alone were given in a similar manner.

Data set [2] concerns hexobarbital-induced anesthesia in mice. Also noted: species or system male ddY mice. The settings on record: mouse, in vivo. An excerpt: The results of 48 hr homologous passive cutaneous anaphylaxis (PCA) in rats with the monitoring of antiallergic activity and potentiation of hexobarbital-induced anesthesia in mice with the monitoring of central nervous depressive activity are summarized in Table 1. The following compounds were used as the reference compounds.
2. Potentiation of hexobarbital-induced anesthesia in mice
The loss of righting reflex induced by hexobarbital was used as an index of anesthesia. Groups of eight male ddY mice (20-24 hr fasted) weighing 19 to 27 g were treated orally with the test compounds (30 mg/kg) or vehicle. Thirty minutes later, 80 mg/kg of hexobarbital sodium were injected i.p. to the animals and the duration of loss of righting reflex was observed. The percent increase of sleeping time was calculated using the following formula: [formula]

Structures can show the parent of a compound that is named as a salt.

Consider `Cc1ccc(C(OC2CCN(CCCCCCC(=O)O)CC2)c2ccccc2)cc1.Cl` (racemic) [Example 73, (±)-4-[(4-Methylphenyl)phenylmethoxy]-1-piperidineheptanoic acid hydrochloride], for which the inhibition in vivo at 1 mg/kg in data set [1] was 67%. In data set [2], the “the percent increase of hexobarbital-induced anesthesia in mice” value (“the percent increase” below) worked out at 2%.

`Cc1ccc(C(OC2CCN(CCC(=O)O)CC2)c2ccccc2)cc1.Cl` (racemic) [Example 70, (±)-4-[(4-Methylphenyl)phenylmethoxy]-1-piperidinepropionic acid hydrochloride]: in data set [1], the inhibition in vivo at 1 mg/kg was 51%. Moreover, in data set [2], the “the percent increase” value was -2%.

Regarding `Cc1ccc(C(OC2CCN(CCCCCC(=O)O)CC2)c2ccccc2)cc1.Cl` (single isomer, unassigned; (+)) [Example 125, (+)-4-[(4-Methylphenyl)phenylmethoxy]-1-piperidinecaproic acid hydrochloride], the inhibition in vivo at 1 mg/kg in data set [1] is 55%. Also, the “the percent increase” value in data set [2] amounted to 29%.

With `Cl.O=C(O)CCCCN1CCC(OC(c2ccc(F)cc2)c2ccc(F)cc2)CC1` [Example 120, 4-[Bis(4-fluorophenyl)methoxy]-1-piperidinevaleric acid hydrochloride], in data set [1], the inhibition in vivo at 1 mg/kg stood at 64%. Besides, the “the percent increase” value in data set [2] was -12%.

Regarding `COc1ccc(C(OC2CCN(CCCC(=O)O)CC2)c2ccccc2)cc1.Cl` (racemic) [Example 87, (±)-4-[(4-Methoxyphenyl)phenylmethoxy]-1-piperidinebutyric acid hydrochloride], the inhibition in vivo at 1 mg/kg in data set [1] is 54%. The “the percent increase” value in data set [2] was 18%.

Turning to `COC(=O)CCCCCN1CCC(OC(c2ccccc2)c2ccc(C)cc2)CC1.Cl` (single isomer, unassigned; (+)) [Example 62, (+)-Methyl 4-[(4-methylphenyl)phenylmethoxy]-1-piperidinecaproate hydrochloride], the inhibition in vivo at 1 mg/kg in data set [1] came out at 56%. Further, the “the percent increase” value in data set [2] was determined as 29%.

Consider `COc1ccc(C(OC2CCN(CCC(=O)O)CC2)c2ccccc2)cc1.Cl` (racemic) [Example 86, (±)-4-[(4-Methoxyphenyl)phenylmethoxy]-1-piperidinepropionic acid hydrochloride], for which the inhibition in vivo at 1 mg/kg in data set [1] stood at 60%. The “the percent increase” value in data set [2] amounted to 4%.

Consider `Cl.O=C(O)CCCN1CCC(OC(c2ccccc2)c2ccccc2Cl)CC1` (racemic) [Example 112, (±)-4-[(2-Chlorophenyl)phenylmethoxy]-1-piperidinebutyric acid hydrochloride], for which the inhibition in vivo at 1 mg/kg in data set [1] amounted to 53%. Moreover, the “the percent increase” value in data set [2] is 29%.

Regarding `COC(=O)CCCCCN1CCC(OC(c2ccccc2)c2ccc(C)cc2)CC1.Cl` (racemic) [Example 1, (±)-Methyl 4-[(4-methylphenyl)phenylmethoxy]-1-piperidinecaproate hydrochloride], the inhibition in vivo at 1 mg/kg in data set [1] amounted to 77%. The “the percent increase” value in data set [2] came to 16%.

Regarding `Cc1ccc(C(OC2CCN(CCCC(=O)O)CC2)c2ccccc2)cc1.Cl` (racemic) [Example 71, (±)-4-[(4-Methylphenyl)phenylmethoxy]-1-piperidinebutyric acid hydrochloride], in data set [1], the inhibition in vivo at 1 mg/kg was 65%. In addition, in data set [2], the “the percent increase” value is 3%.

For `Cl.O=C(O)CCCN1CCC(OC(c2ccccc2)c2ccc(F)cc2)CC1` (racemic) [Example 115, (±)-4-[(4-Fluorophenyl)phenylmethoxy]-1-piperidinebutyric acid hydrochloride], the inhibition in vivo at 1 mg/kg in data set [1] was 73%. For the same compound, in data set [2], the “the percent increase” value is listed as 21%.

Consider `CCOC(=O)Oc1ccc(C=CC=CC(=O)NCCN2CCC(OC(c3ccccc3)c3ccccc3)CC2)cc1OC` [Reference compound B, N-[2-[4-(diphenylmethoxy)piperidino]ethyl]-5-[4-(ethoxycarbonyloxy)-3-methoxyphenyl]-2,4-pentadienoylamide, reference compound], for which the inhibition in vivo at 1 mg/kg in data set [1] worked out at 8%. The “the percent increase” value in data set [2] stood at 35%.

Take `Cc1ccc(C(OC2CCN(CCCCCC(=O)O)CC2)c2ccccc2)cc1.Cl` (single isomer, unassigned; (-)) [Example 126, (-)-4-[(4-Methylphenyl)phenylmethoxy]-1-piperidinecaproic acid hydrochloride]: the “the percent inhibition of PCA in rats” value in data set [1] (1 mg/kg, p.o., hydrochloride) is recorded as 36%. Moreover, the “the percent increase” value in data set [2] is -1%.

Consider `COc1ccc(C(OC2CCN(CCCCCC(=O)O)CC2)c2ccccc2)cc1.Cl` (racemic) [Example 89, (±)-4-[(4-Methoxyphenyl)phenylmethoxy]-1-piperidinecaproic acid hydrochloride], for which the inhibition in vivo at 1 mg/kg in data set [1] is 71%. For the same compound, the “the percent increase” value in data set [2] stood at 20%.

Take `Cl.O=C(O)CCN1CCC(OC(c2ccccc2)c2ccccc2)CC1` [Example 65, 4-(Diphenylmethoxy)-1-piperidinepropionic acid hydrochloride]: the inhibition in vivo at 1 mg/kg in data set [1] turned out to be 62%. For the same compound, the “the percent increase” value in data set [2] came to 29%.

Turning to `Cc1ccc(C(OC2CCN(CCCCCC(=O)O)CC2)c2ccccc2)cc1.Cl` (racemic) [Example 64, (±)-4-[(4-Methylphenyl)phenylmethoxy]-1-piperidinecaproic acid hydrochloride], the inhibition in vivo at 1 mg/kg in data set [1] came to 68%. Also, the “the percent increase” value in data set [2] is -8%.

For the compound `Cc1ccc(C(OC2CCN(CCCCCCCC(=O)O)CC2)c2ccccc2)cc1.Cl` (racemic) [Example 74, (±)-4-[(4-Methylphenyl)phenylmethoxy]-1-piperidineoctanoic acid hydrochloride], in data set [1], the inhibition in vivo at 1 mg/kg worked out at 59%. Also, in data set [2], the “the percent increase” value is reported as 21%.

Regarding `CCc1ccc(C(OC2CCN(CCCCCC(=O)O)CC2)c2ccccc2)cc1.Cl` (racemic) [Example 77, (±)-4-[(4-Ethylphenyl)phenylmethoxy]-1-piperidinecaproic acid hydrochloride], in data set [1], the inhibition in vivo at 1 mg/kg came to 68%. Also, the “the percent increase” value in data set [2] worked out at 24%.

For the compound `CN1CCC(OC(c2ccccc2)c2ccccc2)CC1` [Reference compound A, diphenylpyraline hydrochloride, reference compound], the inhibition in vivo at 1 mg/kg in data set [1] is -1%. For the same compound, the “the percent increase” value in data set [2] was found to be 75%.

Turning to `Cc1ccc(C(OC2CCN(CCCCC(=O)O)CC2)c2ccccc2)cc1.Cl` (racemic) [Example 72, (±)-4-[(4-Methylphenyl)phenylmethoxy]-1-piperidinevaleric acid hydrochloride], the inhibition in vivo at 1 mg/kg in data set [1] amounted to 63%. Besides, in data set [2], the “the percent increase” value is listed as 12%.

As to `Cl.O=C(O)CCCCN1CCC(OC(c2ccccc2)c2ccc(F)cc2)CC1` (racemic) [Example 116, (±)-4-[(4-Fluorophenyl)phenylmethoxy]-1-piperidinevaleric acid hydrochloride], the inhibition in vivo at 1 mg/kg in data set [1] worked out at 83%. The “the percent increase” value in data set [2] came to 31%.
